According to patent US4548819A, “Derivatives of 9-(2-hydroxyethoxymethyl) guanine” (priority 1983, dated 1985):
≈ marks a conversion by molar mass, not a printed value. Structures can show the parent of a compound that is named as a salt.

Legend:
[1] = test system: HSV-1 (KOS); experiment: Antiviral activity in vitro: retardation of virus-induced cytopathogenicity in primary rabbit kidney cells, HSV-1 (KOS); type: cell-based, herpes simplex virus, Type 1; details: Human alphaherpesvirus 1, average of 2 or 3 determinations, read-out: Minimum Inhibitory Concentration (concentration necessary to reduce by 50% the cytopathogenicity induced by the virus)
Excerpt: (§1) In a series of biological tests an investigation was made of the activity of the compounds of Examples 1-3 in comparison with acyclovir against various viruses in cell cultures of primary rabbit kidney cells.
(§2) The viruses used were: herpes simplex type 1 (strains KOS, Mc Intyre and F) and herpes simplex type 2 (strains Lyons, G and 196).
(§3) The origin of the six herpes simplex strains and the method for the measurement of the retardation of the cytopathogenicity induced by the virus are described by E. de Clercq et al. in J. Infect Dis., 141, 563 (1980).
(§4) The results of the tests are reproduced in the following table, where they are expressed in the minimum inhibitory concentration, that is to say the concentration (in μg/ml) which is necessary to reduce by 50% the cytopathogenicity induced by the virus in the cell culture. In all cases average values of 2 or 3 separate determinations are given.

[2] = test system: HSV-1 (McIntyre); experiment: Antiviral activity in vitro: retardation of virus-induced cytopathogenicity in primary rabbit kidney cells, HSV-1 (McIntyre); type: cell-based, herpes simplex virus, Type 1; details: Human alphaherpesvirus 1, average of 2 or 3 determinations, read-out: Minimum Inhibitory Concentration (concentration necessary to reduce by 50% the cytopathogenicity induced by the virus)
Excerpt: as §1, §2, §3, §4

[3] = test system: HSV-1 (F); experiment: Antiviral activity in vitro: retardation of virus-induced cytopathogenicity in primary rabbit kidney cells, HSV-1 (F); type: cell-based, herpes simplex virus, Type 1; details: Human alphaherpesvirus 1, average of 2 or 3 determinations, read-out: Minimum Inhibitory Concentration (concentration necessary to reduce by 50% the cytopathogenicity induced by the virus)
Excerpt: as §1, §2, §3, §4

[4] = test system: HSV-2 (Lyons); experiment: Antiviral activity in vitro: retardation of virus-induced cytopathogenicity in primary rabbit kidney cells, HSV-2 (Lyons); type: cell-based, herpes simplex virus, Type 2; details: Human alphaherpesvirus 2, average of 2 or 3 determinations, read-out: Minimum Inhibitory Concentration (concentration necessary to reduce by 50% the cytopathogenicity induced by the virus)
Excerpt: as §1, §2, §3, §4

[5] = test system: HSV-2 (G); experiment: Antiviral activity in vitro: retardation of virus-induced cytopathogenicity in primary rabbit kidney cells, HSV-2 (G); type: cell-based, herpes simplex virus, Type 2; details: Human alphaherpesvirus 2, average of 2 or 3 determinations, read-out: Minimum Inhibitory Concentration (concentration necessary to reduce by 50% the cytopathogenicity induced by the virus)
Excerpt: as §1, §2, §3, §4

[6] = test system: HSV-2 (196); experiment: Antiviral activity in vitro: retardation of virus-induced cytopathogenicity in primary rabbit kidney cells, HSV-2 (196); type: cell-based, herpes simplex virus, Type 2; details: Human alphaherpesvirus 2, average of 2 or 3 determinations, read-out: Minimum Inhibitory Concentration (concentration necessary to reduce by 50% the cytopathogenicity induced by the virus)
Excerpt: as §1, §2, §3, §4

[7] = test system: HSV-1 (strain McIntyre); experiment: Antiviral activity in vivo: HSV-1 stromal keratitis in rabbits, eye drops
Description: The in vivo antiviral activity of the compound of Example 1 was compared with the known antiviral bromovinyldeoxyuridine.
Eye drops containing 0.5% (w/v) of bromovinyldeoxyuridine or 1% w/v of compound of Example 1 were prepared in an isotonic borate buffer containing 1.52 g boric acid, 0.008 g borax and 0.01 g benzalkoniumchloride in 100 ml distilled water. The pH of the solution was 5.7. The vehicle alone without any antiviral ingredients was used as placebo. The eye drops were coded.
A cross-breed of California albino and Dendermonde white rabbits, weighing between 1.5 and 2 kg, were used.
Thirty rabbits were used to produce stromal keratitis according to the technique of McNeill and Kaufman (Arch. Ophthalmol. 97: 727-729, 1979). Rabbits were anesthetized by a subcutaneous injection of fentanyl citrate at 1 ml/kg. A 0.2 ml virus suspension, containing 10^4.5 plaque-forming units of HSV-1 (strain McIntyre) per ml, was injected into the central corneal stroma of both eyes.
The rabbits were numbered serially and allocated at random to three groups of […] rabbits each. Treatment consisted of administration of eye drops containing the compound of Example 1, bromovinyldeoxyuridine, or placebo eye drops. Treatment was started one day after virus inoculation. One drop of the eye drop formulation was instiled into the eye at hourly intervals, nine times as day. Therapy was continued for 5 consecutive days. Both eyes of each rabbit received the same modification.
The severity of keratitis was evaluated daily by the same person using a slitlamp. White illumination was used to examine the corneal stroma and anterior chamber structures. One percent fluorescein sodium eye drops and a cobalt blue filter were employed to judge epithelial keratitis and corneal ulceration.

[8] = test system: herpes viruses; details: H. J. Schaeffer et al, Nature, 272, 583-585 (1978); cited from earlier work
[9] = eye drops, Example 1 at 1% w/v or bromovinyldeoxyuridine at 0.5% w/v
[10] = iritis accompanying stromal HSV-1 keratitis, eye drops

| Compound | IC50 [1] [µg/mL] | IC50 [2] [µg/mL] | IC50 [3] [µg/mL] | IC50 [4] [µg/mL] | IC50 [5] [µg/mL] | IC50 [6] [µg/mL] | difference in keratitis score versus placebo [7, 9] | progression or healing of stromal disease [7, 9] | suppression of stromal keratitis ([7]; eye drops, Example 1 at 1% w/v or bromovinyldeoxyuridine at 0.5% w/v, hourly nine times a day, 5 days) | difference in iritis scores versus placebo [7, 10] | reduction in the iritis scores [7, 10] | mean keratitis scores ([7]; once treatment was initiated, 1% w/v eye drops) | antiviral activity [8] |
| --- | --- | --- | --- | --- | --- | --- | --- | --- | --- | --- | --- | --- | --- |
| Cl.NCC(=O)OCCOCn1cnc2c(=O)[nH]c(N)nc21 [Example 1, 9-(2-glycyloxyethoxymethyl)guanine hydrochloride] | 0.1 | 0.1 | 0.1 | 0.04 | 0.08 | 0.07 | statistically significant throughout the whole observation period | prevented the progression of stromal disease | effective in suppressing stromal keratitis | significant from day 2 till day 8 | significant reduction in the iritis scores | remained nearly constant |  |
| Nc1nc2c(ncn2COCCO)c(=O)[nH]1 [Acyclovir, 9-(2-Hydroxyethoxymethyl)guanine, reference compound] | 0.08 (≈ 0.355 µM) | 0.1 (≈ 0.444 µM) | 0.09 (≈ 0.4 µM) | 0.04 (≈ 0.178 µM) | 0.06 (≈ 0.266 µM) | 0.06 (≈ 0.266 µM) |  |  |  |  |  |  | potential antiviral activity, particularly against herpes viruses |
| CC(N)C(=O)OCCOCn1cnc2c(=O)[nH]c(N)nc21 (stereo not drawn) [Example 2, 9-(2-0-α-alanyloxyethoxymethyl)guanine hydrochloride] | 0.4 | 0.4 | 0.4 | 0.07 | 0.2 | 0.1 |  |  |  |  |  |  |  |
| NCCC(=O)OCCOCn1cnc2c(=O)[nH]c(N)nc21 [Example 3, 9-(2-0-β-alanyloxyethoxymethyl)guanine hydrochloride] | 0.2 | 0.4 | 0.5 | 0.1 | 0.15 | 0.1 |  |  |  |  |  |  |  |
